The test system of one data set is male Sprague Dawley rats. The data set can be described thus: Clinical observations of rats during administration of propofol analogs in the pharmacokinetics study. As for the experimental part:
(§1) Blood samples were to be taken pre-dose, during dose and post dose at designated intervals, with the blood quickly processed and stored at −70° C. until analysis.
(§2) Formulations were prepared on the morning of the dosing day and each was passed through a 0.22 μm filter prior to being administered to animals. A standard dose of 0.168 mmol/Kg per analog was administered to each of the rats. […] Analog stability in the formulations was verified by preparing each formulation and harvesting 200 μL aliquots at 0, 1, 2 and 8 hr while standing at room temperature. After harvesting, each sample was immediately frozen in dry ice until analysis; concentrations of test compounds in the samples were examined by HPLC-UV.
(§3) The animals were surgically prepared with indwelling cannula, double cannulation in carotid artery and jugular vein for i.v. infusion. The anesthetic pentobarbital was used during the surgery, and the animals were allowed to recover 3-5 days after surgery before the formulation was dosed. The dose formulation was administered intravenously via the jugular vein cannula. The 16.8 μmol/mL formulation was administered i.v. at a rate of 1 mL/Kg/min for 10 min.

Data set [1] can be described thus: Pharmacokinetics: plasma concentrations of prodrug and propofol after intravenous infusion (LC/MS/MS). Particulars: for Mean concentration of prodrug and propofol in rat plasma after intravenous infusion administration / AUCinf / MRTinf / AUClast / CLp / Vdss: analyte = administered compound; for AUCinf / MRTinf: extrapolated to infinity; for AUClast: to last detected concentration; for CLp: total body clearance, dose/AUCinf; for Vdss: volume of distribution; for Mean Concentration of Propofol in Rat Plasma After Intravenous Administration: analyte = propofol released from the administered compound; for Pro-drug behaviour (release of propofol in vivo): rats, releasing the propofol in a matter of minutes after infusion. As for the experimental part: as §1, §2, §3
Approximately 0.20 mL blood was collected at each designated time point from carotid artery via a catheter. A total of 12 plasma samples were taken from each animal: 1 pre-dose; 2 during the dose (5 into the 10 min infusion and one just prior termination of the 10 min infusion) and 9 post-infusion at 2, 5, 15, 30 min and 1, 2, 3, 4, and 6 hr post-dose. All blood samples were transferred into plastic microcentrifuge tubes containing 5 μL of K2-EDTA (0.5M) as anti-coagulant and placed on ice until processed for plasma. Blood samples were processed for plasma by centrifugation at approximately 5° C. Plasma samples were then stored in 1.5 mL tubes, quick frozen over dry ice and kept at −70±10° C. until LC/MSMS analysis.
For each, a minimum of 6 standard point curve runs in duplicates, and minimum of 5 standards were back calculated to within ±20% of their nominal concentrations. The LLOQ of each test article in plasma was established and 6 QC samples were included in assay runs of samples to ensure assay performance.
Data Analysis. Plasma concentration versus time data was analyzed by non-compartmental approaches using the WinNonlin software program (version 5.2, Pharsight, Mountain View, Calif.) and the pharmacokinetic parameters T½, CL, Vss, AUC(0-t), AUC(0-inf), MRT, and graphs of plasma concentration versus time calculated for each.

The conditions of data set [2]: cited from earlier work.
Data set [3] can be described thus: Solubility determination in D2O by 1H NMR with DSS internal standard.
Method: Thus the soapy-like solutions obtained were diluted until opalescent and diluted further until the opalescence visually disappeared.
Where [4] appears, read: time post-10 min i.v. infusion, 0.168 mmol/Kg.
[5] abbreviates: individual rats, post-10 min infusion, vehicle 10% Tween80.

Values joined by “and” are separate entries in the source; they are usually repeats but may differ in a detail not shown here. Identical values can stand only once. “Also recorded” adds a separate entry of the source. Bounds are passed on as bounds.

As a reminder, the Vdss is the apparent volume that relates the amount in the body to the concentration in plasma or blood. For `CC(C)c1cccc(C(C)C)c1O` [Propofol, 2,6-diisopropylphenol, reference compound], the Rats soporous at entry in the data set with male Sprague Dawley rats (setting [4]) was “Rats soporous at about 4 min and”. In addition, the Rats recovered at entry in the data set with male Sprague Dawley rats (time post-10 min infusion, 5% cremophor vehicle) is “recovered at about 1.5 hr”. Also, the “Mean concentration of prodrug and propofol in rat plasma after intravenous infusion administration” value is 21795 nM in data set [1] (Time (h) 0.083); 31510 nM in data set [1] (Time (h) 0.167); 19613 nM in data set [1] (Time (h) 0.2); 13370 nM in data set [1] (Time (h) 0.25); 3827 nM in data set [1] (Time (h) 0.417); 3122 nM in data set [1] (Time (h) 0.667). Also, the “Mean concentration of prodrug and propofol in rat plasma after intravenous infusion administration” value in data set [1] (Time (h) 1.166) is 1642 nM; in data set [1] (Time (h) 2.166), 841 nM; in data set [1] (Time (h) 3.166) it was 332 nM; in data set [1] (Time (h) 4.166) it was 259 nM; in data set [1] (Time (h) 6.166), 230 nM. The AUCinf in data set [1] was 12.634 µM·h. Moreover, the MRTinf in data set [1] was 209 min. The AUClast in data set [1] was 10.576 µM·h. Moreover, the CLp in data set [1] is 264.7 mL/min/kg. Further, in data set [1], the Vdss came out at 61.2 L/kg. For the same molecule, in data set [1] (Time (h) 0), the “Mean Concentration of Propofol in Rat Plasma After Intravenous Administration” value (“Mean Concentration of Propofol” below) is “BQL”. Besides, in data set [2] (anesthetic onset), the Onset is less than 30 s. Moreover, in data set [2] (in vivo), the Duration of action was approximately 5 min. Further, the “Pain on administration (share of uses)” value in data set [2] (standard lipid formulation) is recorded as 80%.

On to `CC(C)c1cccc(C(C)C)c1OC(=O)OCCO[C@H]1O[C@H](CO)[C@@H](O)[C@H](O)[C@H]1O` [Compound 32], for which the Rats recovered at entry with male Sprague Dawley rats (setting [4]) is reported as “recovered at about 26 min”. The “Mean concentration of prodrug and propofol in rat plasma after intravenous infusion administration” value in data set [1] (Time (h) 0) is “BQL”; in data set [1] (Time (h) 0.083), 4.88 nM; in data set [1] (Time (h) 0.167) it was 4.97 nM; in data set [1] (Time (h) 0.2), 2.68 nM; in data set [1] (Time (h) 0.25), “BQL”; in data set [1] (Time (h) 0.417), “BQL”. For the same molecule, the “Mean concentration of prodrug and propofol in rat plasma after intravenous infusion administration” value in data set [1] (Time (h) 0.667), in data set [1] (Time (h) 1.166), in data set [1] (Time (h) 2.166), in data set [1] (Time (h) 3.166), in data set [1] (Time (h) 4.166) and in data set [1] (Time (h) 6.166) was “BQL” in each case. In addition, in data set [1], the AUClast stood at 0.000657 µM·h. Besides, the “Mean Concentration of Propofol” value in data set [1] (Time (h) 0) is recorded as “BQL”. Also, the “Pro-drug behaviour (release of propofol in vivo)” value in data set [1] was “very efficient pro-drugs”. Also, in data set [3], the Relative solubility is given as 12.0.

For the molecule `CC(C)c1cccc(C(C)C)c1OC(=O)NCCO[C@@H]1O[C@H](CO)[C@@H](O)[C@H](O)[C@H]1O` [Compound 17], the “Rat died at infusion of” value in the data set on male Sprague Dawley rats (Additional Rat 4, during infusion, vehicle 10% Tween80) was “infusion of 8 min”. Further, the Rat died at with male Sprague Dawley rats (Rat 3, post-10 min infusion, vehicle 10% Tween80) was 1.5 h; in the data set on male Sprague Dawley rats (setting [5]) it was “died at 15 min. and 40 min”. In addition, in the data set with male Sprague Dawley rats (in its vehicle (10% tween80 cosolvent)), the “Overall outcome in rats” value was “poor results”. Besides, the “Rat recovered (from breathlessness) at” value with male Sprague Dawley rats (setting [5]) is on record as “recovered at 10 min.; died at”. Further, the Cause of death result in the data set with male Sprague Dawley rats (individual rats, vehicle 10% Tween80) was “blood hemolysis; also recorded: hematuria”. In addition, the “Mean concentration of prodrug and propofol in rat plasma after intravenous infusion administration” value in data set [1] (Time (h) 0) was “BQL”; in data set [1] (Time (h) 0.083), 178796 nM; in data set [1] (Time (h) 0.167), 312678 nM; in data set [1] (Time (h) 0.2), 152206 nM; in data set [1] (Time (h) 0.25), 119535 nM; in data set [1] (Time (h) 0.417), 35206 nM. For the same molecule, the “Mean concentration of prodrug and propofol in rat plasma after intravenous infusion administration” value is 19837 nM in data set [1] (Time (h) 0.667); 8012 nM in data set [1] (Time (h) 1.166); 2083 nM in data set [1] (Time (h) 2.166); 390.7 nM in data set [1] (Time (h) 3.166); 82.5 nM in data set [1] (Time (h) 4.166); 10.6 nM in data set [1] (Time (h) 6.166). Also, the AUCinf in data set [1] was 71.764 µM·h. In addition, the MRTinf in data set [1] was 16.6 min. Moreover, the AUClast in data set [1] amounted to 61.644 µM·h. Moreover, in data set [1], the CLp worked out at 39.1 mL/min/kg. Besides, the distribution volume (Vdss) in data set [1] is 0.657 L/kg. Further, the “Mean Concentration of Propofol” value in data set [1] (Time (h) 0), in data set [1] (Time (h) 2.166), in data set [1] (Time (h) 3.166), in data set [1] (Time (h) 4.166) and in data set [1] (Time (h) 6.166) was “BQL” throughout. For the same molecule, the “Water solubility (qualitative)” value in data set [3] (reason for cosolvent) is given as “poor”.

Take `CC(C)c1cccc(C(C)C)c1OC(=O)OCCCO[C@@H]1O[C@H](CO)[C@@H](O)[C@H](O)[C@H]1O` [Compound 12]: the Rats recovered at entry in the data set with male Sprague Dawley rats (setting [4]) is “recovered at about 30 min”. Also, the “Mean concentration of prodrug and propofol in rat plasma after intravenous infusion administration” value in data set [1] (Time (h) 0) was “BQL”; in data set [1] (Time (h) 0.083) it was 4.11 nM; in data set [1] (Time (h) 0.167), 6.78 nM; in data set [1] (Time (h) 0.2), “BQL”; in data set [1] (Time (h) 0.25), “BQL”; in data set [1] (Time (h) 0.417) it was “BQL”. In addition, the “Mean concentration of prodrug and propofol in rat plasma after intravenous infusion administration” value in data set [1] (Time (h) 0.667), in data set [1] (Time (h) 1.166), in data set [1] (Time (h) 2.166), in data set [1] (Time (h) 3.166), in data set [1] (Time (h) 4.166) and in data set [1] (Time (h) 6.166) was “BQL” each time. The AUCinf in data set [1] was 0.00122 µM·h. Further, in data set [1], the MRTinf is 6 min. Moreover, the AUClast in data set [1] was determined as 0.000773 µM·h. The “Mean Concentration of Propofol” value in data set [1] (Time (h) 0), in data set [1] (Time (h) 4.166) and in data set [1] (Time (h) 6.166) was “BQL” throughout. The “Pro-drug behaviour (release of propofol in vivo)” value in data set [1] is “very efficient pro-drugs”. Also, the Relative solubility in data set [3] is listed as 5.0.

(Values after patent publication US9023813B2 (Nutek Pharma Ltd., priority 2012, dated 2015).)
